{"source": "patent US11058716B2", "about": "(priority 2015, dated 2021)", "system": "PAO1 protein", "format": "cell-based, Pseudomonas aeruginosa"}
{"smiles": "N[C@@H](CCC(=O)N[C@@H](CSN=O)C(=O)NCC(=O)O)C(=O)O", "note": "[GSNO, nitrosoglutathione]", "values": [{"measurement": "overall SNO level of the PAO1 protein", "result": "increased significantly"}]}
